Assay results as given in patent US7253306B2, “Pharmaceutical drug candidates and methods for preparation thereof” (Neurochem (International) Limited, priority 2003, dated 2007).

Test: Partition coefficient water/toluene
Format: physicochemical

**Q.** With `O=S1(=O)CCCO1` [1,3-propane sultone] as the compound, how does the “partition coefficient for water/toluene” value read?
**A.** 1.4
